One series concerns the target T1, PPAR-β/δ (Homo sapiens, UniProt Q03181).
T1 sequence (Q03181 1-441): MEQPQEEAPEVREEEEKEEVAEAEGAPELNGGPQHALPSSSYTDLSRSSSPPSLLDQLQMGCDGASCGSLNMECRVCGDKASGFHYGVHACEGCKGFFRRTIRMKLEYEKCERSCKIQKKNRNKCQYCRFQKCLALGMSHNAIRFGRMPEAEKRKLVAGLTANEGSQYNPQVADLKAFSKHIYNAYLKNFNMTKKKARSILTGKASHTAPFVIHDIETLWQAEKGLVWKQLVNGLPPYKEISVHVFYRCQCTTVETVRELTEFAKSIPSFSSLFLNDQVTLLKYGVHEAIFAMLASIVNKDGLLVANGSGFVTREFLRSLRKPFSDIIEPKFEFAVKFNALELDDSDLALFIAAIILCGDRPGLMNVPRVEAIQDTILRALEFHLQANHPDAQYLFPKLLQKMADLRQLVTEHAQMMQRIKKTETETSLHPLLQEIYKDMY
The series can be described thus: In vitro antagonist assay on PPAR-β/δ. It is filed as biochemical. The text has this:
The binding and activity of norbixin on PPARs remains controversial, thus, firstly, we performed competition experiments in vitro between norbixin and [^3H] GW7647, an agonist of PPAR-α, and [^3H] rosiglitazone, an agonist of PPAR-γ. […] Secondly, we tested whether norbixin could induce the transactivation of PPAR-α, -β/δ or -γ in the context of RPE cells in vitro by co-transfecting porcine RPE cells with a plasmid expressing each of the full-length PPAR isoforms and a plasmid expressing luciferase under the control of the PPAR response element. […] Then, we wanted to determine if norbixin could modulate the transactivation of PPAR isoforms induced by specific agonists.

The test system of another series is RPE cells. The series can be described thus: Cell viability of RPE cells in culture without blue light. It is filed as cell-based, porcine. The following applies: cell culture conditions for cytokine dosage, absence of blue light exposure.

The IC50 is the concentration that gives 50% inhibition. Read a low IC50 as greater potency in that assay. With `CC(/C=C/C=C(C)/C=C/C(=O)O)=C\C=C\C=C(C)\C=C\C=C(C)\C=C\C(=O)O` (stereo in doubt) [norbixin, 9’-cis-norbixin], the IC50 against PPAR-β/δ was found to be 9.9 µM.
Regarding `CC(C=CC1=C(C)CCCC1(C)C)=CC=CC(C)=Cc1cc(C=CC=C(C)C=CC2=C(C)CCCC2(C)C)cc[n+]1CCO` [A2E, N-retinylidene-N-retinylethanolamine], the cell viability result in the series with RPE cells is reported as “not diminished”.

(Values after paper PMC8507260, “A2E-induced inflammation and angiogenesis in RPE cells in vitro are modulated by PPAR-α, -β/δ, -γ, and RXR antagonists and by norbixin” (Aging (Albany NY), 2021).)
